Laboratory results taken from patent publication US11369655B2, “Healthful supplements” (priority 2015, dated 2022).
Values after ≈ are worked out from the molar mass of the structure shown.

Tests used:
[1] = crystalline form at −20° C.; cited from earlier work
[2] = target: peripheral cannabinoid receptor type 2 (CB2) (Homo sapiens, UniProt P34972); details: cited from earlier work
[3] = target: cannabinoid receptor type 1 (CB1) (Homo sapiens, UniProt P21554); details: cited from earlier work
[4] = cited from earlier work
[5] = Acute oral toxicity (LD50) in rats; assay type: in vivo, rat
[6] = cited from earlier work; remark: listed apart in the source
[7] = vapor phase, estimated, cited from earlier work

cannabinoid receptor type 1 (CB1), sequence (P21554 whole entry, species assumed): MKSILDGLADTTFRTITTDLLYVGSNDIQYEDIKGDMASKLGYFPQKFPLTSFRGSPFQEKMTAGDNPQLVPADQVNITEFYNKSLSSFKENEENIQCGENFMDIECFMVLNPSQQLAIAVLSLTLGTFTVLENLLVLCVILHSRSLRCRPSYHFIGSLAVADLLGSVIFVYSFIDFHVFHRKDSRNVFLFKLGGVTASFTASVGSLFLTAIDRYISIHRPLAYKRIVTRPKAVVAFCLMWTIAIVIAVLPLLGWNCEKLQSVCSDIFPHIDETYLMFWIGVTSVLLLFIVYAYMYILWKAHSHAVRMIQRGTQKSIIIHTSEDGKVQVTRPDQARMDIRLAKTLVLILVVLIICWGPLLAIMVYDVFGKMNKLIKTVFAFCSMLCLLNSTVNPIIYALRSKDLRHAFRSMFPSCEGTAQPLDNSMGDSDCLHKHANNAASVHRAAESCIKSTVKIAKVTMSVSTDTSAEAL
peripheral cannabinoid receptor type 2 (CB2), sequence (P34972 whole entry, species assumed): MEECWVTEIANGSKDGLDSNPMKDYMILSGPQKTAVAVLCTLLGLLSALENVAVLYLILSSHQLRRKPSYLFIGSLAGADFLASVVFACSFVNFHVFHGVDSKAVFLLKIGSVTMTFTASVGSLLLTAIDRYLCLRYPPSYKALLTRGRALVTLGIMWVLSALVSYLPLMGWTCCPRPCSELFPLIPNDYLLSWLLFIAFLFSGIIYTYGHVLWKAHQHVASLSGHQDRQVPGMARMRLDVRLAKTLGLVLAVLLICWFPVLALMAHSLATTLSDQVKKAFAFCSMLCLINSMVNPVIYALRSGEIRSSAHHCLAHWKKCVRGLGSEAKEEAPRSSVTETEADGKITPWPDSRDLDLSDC

## CCCCCC(C)(C)c1ccc([C@H]2CCC[C@@H](O)C2)c(O)c1 (relative stereo) [cp 47,497-C6-homolog, cis-5-(1,1 dimethylhexyl)-2-(3-hydroxycyclohexyl)-phenol]
[1]
  long term storage stability: stable for at least two years
[2]
  affinity for CB2: has affinity
[3]
  affinity for CB1: has affinity
[4]; DMF
  solubility in DMF: approximately 10 mg/ml
[4]; DMSO
  solubility in DMSO: ~15 mg/mL (≈ 49.3 mM)
[4]; aqueous solutions
  solubility in aqueous solutions: sparingly soluble
[4]; ethanol
  solubility in ethanol: approximately 10 mg/ml
[4]; methanol
  solubility in methanol: approximately 12.5 mg/ml

## OCC(O)CO [Vegetable glycerin, glycerol]
[5]; conversion of the rat oral LD50
  LD50 oral rat dosage converted per pound: approximately 5.7 grams per pound of body weight
[5]; for a 180 pound male
  LD50 oral rat dosage converted for a 180 pound male: 36 ounces
[6]; MSDS
  LD50 oral rat dosage: 12,600 milligrams per kilogram of body weight

## CCO [ethyl (grain) alcohol]
[6]; rat
  acute oral toxicity (LD50) in rats: about 7060 mg/kg

## C=CC(=C)CCC=C(C)C [myrcene, beta-myrcene]
[7]; nitrate radicals
  half-life in air, reaction with nitrate radicals: 4 min
[7]; ozone
  half-life in air, reaction with ozone: 34 min
[7]; photochemically-produced hydroxyl radicals
  half-life in air, reaction with hydroxyl radicals: 108 min
